Publication PMC10120310 (Cell Insight, 2022)

What was measured:
[1] = tested on: H1N1 virus; assay: microbe, parasite or virus in culture; assay type: cell-based; conditions: Influenza A virus, H1N1, MDCK
[2] = target: influenza NA protein (Influenza A virus, UniProt P03470); assay type: cell-based, influenza virus (WSN)
[3] = in vitro; conditions: dog

Chain of influenza NA protein (P03470 whole entry, looked up): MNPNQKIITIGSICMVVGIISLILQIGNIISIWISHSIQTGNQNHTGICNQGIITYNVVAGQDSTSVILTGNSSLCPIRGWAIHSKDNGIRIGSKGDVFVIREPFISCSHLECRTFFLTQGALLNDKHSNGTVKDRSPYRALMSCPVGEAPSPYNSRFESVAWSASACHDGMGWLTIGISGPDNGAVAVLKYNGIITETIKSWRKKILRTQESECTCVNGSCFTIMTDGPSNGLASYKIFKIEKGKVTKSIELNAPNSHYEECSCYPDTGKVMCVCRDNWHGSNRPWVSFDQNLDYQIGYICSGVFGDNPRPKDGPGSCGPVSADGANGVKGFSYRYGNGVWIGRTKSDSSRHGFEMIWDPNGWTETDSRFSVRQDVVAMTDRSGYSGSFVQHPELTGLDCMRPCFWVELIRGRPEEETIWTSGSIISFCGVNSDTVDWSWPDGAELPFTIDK

## CCOC(=O)C1=C[C@@H](OC(CC)CC)[C@H](NC(C)=O)[C@@H](N)C1 [OSP, oseltamivir phosphate]
[1]
  EC50: 360 nM
[2]
  NA protein degradation: no degradation activity
[3]
  CC50: > 50000 nM
